# Measurements: patent US20250282799A1, “SUBSTITUTED PYRIDO[4,3-d]PYRIMIDINES AS KRAS MODULATORS” (Alterome Therapeutics, Inc., priority 2023, published 2025)
# Tested on: KRAS G12V dependent lung adenocarcinoma cell line, NCI-H441
# Assay: Cellular pERK (Thr202/Tyr204) FRET/HTRF assay
# Type: cell-based
# Conditions: Homo sapiens, NCI-H441, cellular pERK (Thr202/Tyr204) HTRF, NCI-H441 cells
# Outline: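 NCI-H441, overnight plating → cpd 1 hr, 37 °C/5% CO2; DMSO neg ctrl. Lyse (phosphatase inhibitors), add donor/acceptor Abs, RT incubation, HTRF read. IC50 by curve fit.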
row,SMILES,IC50 [nM]
1,"Cc1c(F)c(N)cc(-c2ncc3c(N4CCCC[C@H]5[C@H](F)[C@H]54)nc(OC[C@]45CC(=C(F)F)CN4CCC54CC4)nc3c2F)c1C(F)(F)F [Example 412, 5-(2-(((R)-6′-(difluoromethylene)tetrahydrospiro [cyclopropane-1,1′-pyrrolizin]-7a′(5′H)-yl)methoxy)-8-fluoro-4-((1S,7R,8S)-8-fluoro-2-azabicyclo[5.1.0]octan-2-yl)pyrido[4,3-d]pyrimidin-7-yl)-2-fluoro-3-methyl-4-(trifluoromethyl)aniline]",500 to 10000
2,"[2H]C([2H])(Oc1nc(N2CCOC[C@@H]3[C@@H](F)[C@@H]32)c2cc(Cl)c(-c3cc(N)c(F)c(C)c3C(F)(F)F)c(F)c2n1)[C@@]12CCCN1C[C@H](F)C2 [Example 191, 5-(6-chloro-8-fluoro-4-((1R,7R,8R)-8-fluoro-5-oxa-2-azabicyclo[5.1.0]octan-2-yl)-2-(((2R,7aS)-2-fluorotetrahydro-1H-pyrrolizin-7a(5H)-yl)methoxy-d2)quinazolin-7-yl)-2-fluoro-3-methyl-4-(trifluoromethyl)aniline]",500 to 10000
3,"C#Cc1c(F)ccc2cc(N)cc(-c3ncc4c(N5CCOC[C@H]6[C@H](F)[C@H]65)nc(OC[C@]56C[C@]7(CN5CCC65CC5)CC7(F)F)nc4c3F)c12 (single isomer, unassigned) [Example 219]",< 50
4,"[2H]C([2H])(Oc1nc(N2CCOC[C@H]3[C@H](F)[C@H]32)c2cnc(-c3cc(O)cc(C)c3C(F)(F)F)c(F)c2n1)[C@@]12CCCN1C[C@H](F)C2 [Example 335, 3-(8-fluoro-4-((1S,7S,8S)-8-fluoro-5-oxa-2-azabicyclo[5.1.0]octan-2-yl)-2-(((2R,7aS)-2-fluorotetrahydro-1H-pyrrolizin-7a(5H)-yl)methoxy-d2)pyrido[4,3-d]pyrimidin-7-yl)-5-methyl-4-(trifluoromethyl)phenol]",< 50
5,"C#Cc1c(F)ccc2cc(N)cc(-c3ncc4c(N5CCOC[C@H]6[C@H](F)[C@H]65)nc(OC[C@@H]5CCCN5C)nc4c3F)c12 [Example 288, 5-ethynyl-6-fluoro-4-(8-fluoro-4-((1S,7S,8S)-8-fluoro-5-oxa-2-azabicyclo[5.1.0]octan-2-yl)-2-(((S)-1-methylpyrrolidin-2-yl)methoxy)pyrido[4,3-d]pyrimidin-7-yl)naphthalen-2-amine]",< 50
6,"[2H]C([2H])(Oc1nc(N2CCOC[C@H]3[C@H](F)[C@H]32)c2cnc(-c3cccc4ccc(C)c(C#C)c34)c(F)c2n1)[C@@]12CCCN1C[C@H](F)C2 [Example 325, (1S,7S,8S)-2-(7-(8-ethynyl-7-methylnaphthalen-1-yl)-8-fluoro-2-(((2R,7aS)-2-fluorotetrahydro-1H-pyrrolizin-7a(5H)-yl)methoxy-d2)pyrido[4,3-d]pyrimidin-4-yl)-8-fluoro-5-oxa-2-azabicyclo[5.1.0]octane]",< 50
7,"[2H]c1c(F)c(C#C)c2c(-c3ncc4c(N5CCOC[C@H]6[C@H](F)[C@H]65)nc(OC([2H])([2H])[C@@]56CCCN5C[C@H](F)C6)nc4c3F)cc(N)cc2c1[2H] [Example 273, 5-ethynyl-6-fluoro-4-(8-fluoro-4-((1S,7S,8S)-8-fluoro-5-oxa-2-azabicyclo[5.1.0]octan-2-yl)-2-(((2R,7aS)-2-fluorotetrahydro-1H-pyrrolizin-7a(5H)-yl)methoxy-d2)pyrido[4,3-d]pyrimidin-7-yl)naphthalen-7,8-d2-2-amine]",< 50
8,"[2H]C([2H])(Oc1nc(N2CCOC[C@H]3[C@H](F)[C@H]32)c2c(Cl)nc(-c3cc(N)cc4ccc(F)c(C#C)c34)c(F)c2n1)[C@@]12CCCN1C[C@H](F)C2 [Example 291, 4-(5-Chloro-8-fluoro-4-((1S,7S,8S)-8-fluoro-5-oxa-2-azabicyclo[5.1.0]octan-2-yl)-2-(((2R,7aS)-2-fluorotetrahydro-1H-pyrrolizin-7a(5H)-yl)methoxy-d2)pyrido[4,3-d]pyrimidin-7-yl)-5-ethynyl-6-fluoronaphthalen-2-amine]",< 50

# Continued, values first:
row,IC50 [nM],SMILES
1,< 50,"[2H]C([2H])(Oc1nc(N2CCOC[C@H]3[C@H](F)[C@H]32)c2cnc(-c3cc(N)c(F)c(C)c3C(F)(F)F)c(F)c2n1)[C@@]12CCCN1C[C@H](F)C2 [Example 167, 2-Fluoro-5-(8-fluoro-4-((1S,7S,8S)-8-fluoro-5-oxa-2-azabicyclo[5.1.0]octan-2-yl)-2-(((2R,7aS)-2-fluorotetrahydro-1H-pyrrolizin-7a(5H)-yl)methoxy-d2)pyrido[4,3-d]pyrimidin-7-yl)-3-methyl-4-(trifluoromethyl) aniline]"
2,< 50,"C#Cc1c(F)ccc2cc(N)cc(-c3ncc4c(N5CCOC[C@H]6[C@H](F)[C@H]65)nc(OC[C@@]56CCCN5C[C@]5(C[C@H]5F)C6)nc4c3F)c12 (single isomer, unassigned) [Example 254]"
3,< 50,"C#Cc1c(F)ccc2cc(N)cc(-c3ncc4c(N5CCOC[C@H]6[C@H](F)[C@H]65)nc(OC[C@@]56CCCN5C/C(=C\F)C6)nc4c3F)c12 [Example 155, 5-Ethynyl-6-fluoro-4-(8-fluoro-4-((1S,7S,8S)-8-fluoro-5-oxa-2-azabicyclo[5.1.0]octan-2-yl)-2-(((S,Z)-2-(fluoromethylene)tetrahydro-1H-pyrrolizin-7a(5H)-yl)methoxy)pyrido[4,3-d]pyrimidin-7-yl)naphthalen-2-amine]"
4,< 50,"C#Cc1cccc2cc(N)cc(-c3ncc4c(N5CCOC[C@H]6[C@H](Cl)[C@H]65)nc(OC[C@@H]5CCCN5C)nc4c3F)c12 [Example 322, 4-(4-((1S,7S,8S)-8-chloro-5-oxa-2-azabicyclo[5.1.0]octan-2-yl)-8-fluoro-2-(((S)-1-methylpyrrolidin-2-yl)methoxy)pyrido[4,3-d]pyrimidin-7-yl)-5-ethynylnaphthalen-2-amine]"
5,< 50,"C#Cc1c(F)ccc2cccc(-c3ncc4c(N5CCOC[C@H]6[C@H](F)[C@H]65)nc(OC[C@@]56CCCN5CC(=C)C6)nc4c3F)c12 [Example 143, (1S,7S,8S)-2-(7-(8-ethynyl-7-fluoronaphthalen-1-yl)-8-fluoro-2-(((S)-2-methylenetetrahydro-1H-pyrrolizin-7a(5H)-yl)methoxy)pyrido[4,3-d]pyrimidin-4-yl)-8-fluoro-5-oxa-2-azabicyclo[5.1.0]octane]"
6,< 50,"C#Cc1c(F)ccc2cccc(-c3ncc4c(N5CCCC[C@H]6[C@H](F)[C@H]65)nc(OC[C@]56CC(=C)CN5CCC65CC5)nc4c3F)c12 [Example 423, (R)-7a′-(((7-(8-Ethynyl-7-fluoronaphthalen-1-yl)-8-fluoro-4-((1S,7R,8S)-8-fluoro-2-azabicyclo[5.1.0]octan-2-yl)pyrido[4,3-d]pyrimidin-2-yl)oxy)methyl)-6′-methylenehexahydrospiro[cyclopropane-1,1′-pyrrolizine]]"
7,< 50,"[2H]C([2H])(Oc1nc(N2CCOC[C@H]3[C@H](F)[C@H]32)c2cnc(-c3cc(N)cc4ccc(F)c(C#C)c34)c(F)c2n1)[C@@]12CCCN1C[C@@H](Cl)C2 (single isomer, unassigned) [Example 237]"

# Same assay, conditions: Homo sapiens, NCI-H441, cellular pERK HTRF, NCI-H441 (KRAS G12V) cells
row,IC50 [nM],SMILES
1,< 50,"[2H]C([2H])(Oc1nc(N2CCOC[C@H]3[C@H](F)[C@H]32)c2cc(C(F)(F)F)c(-c3cccc4sc(N)c(C#N)c34)c(F)c2n1)[C@@]12CCCN1C[C@H](F)C2 (atropisomer, axis not shown; (aS)) [Example 466, 2-amino-4-((S)-8-fluoro-4-((1S,7S,8S)-8-fluoro-5-oxa-2-azabicyclo[5.1.0]octan-2-yl)-2-(((2R,7aS)-2-fluorotetrahydro-1H-pyrrolizin-7a(5H)-yl)methoxy-d2)-6-(trifluoromethyl)quinazolin-7-yl)benzo[b]thiophene-3-carbonitrile]"

# Same assay, conditions: Homo sapiens, NCI-H441, pERK HTRF, NCI-H441 cells (KRAS G12V)
row,IC50 [nM],SMILES
1,< 50,"[2H]C([2H])(Oc1nc(N2CCCC[C@H]3[C@H](F)[C@H]32)c2cnc(-c3cc(N)cc4cc(F)c(F)c(OCF)c34)c(F)c2n1)[C@@]12CCCN1C[C@H](F)C2 [Example 66, 6,7-Difluoro-4-(8-fluoro-4-((1S,7R,8S)-8-fluoro-2-azabicyclo[5.1.0]octan-2-yl)-2-(((2R,7aS)-2-fluorotetrahydro-1H-pyrrolizin-7a(5H)-yl)methoxy-d2)pyrido[4,3-d]pyrimidin-7-yl)-5-(fluoromethoxy) naphthalen-2-amine]"

# Same assay, conditions: cellular pERK HTRF, NCI-H441 (KRAS G12V) cells
row,IC50 [nM],SMILES
1,< 50,"[2H]C([2H])(Oc1nc(N2CCOC[C@H]3[C@H](F)[C@H]32)c2cc(F)c(-c3cc(N)cc4ccc(F)c(C#C)c34)c(C)c2n1)[C@@]12CCCN1C[C@H](F)C2 (atropisomer, axis not shown; (aS)) [Example 435, 5-ethynyl-6-fluoro-4-((S)-6-fluoro-4-((1S,7S,8S)-8-fluoro-5-oxa-2-azabicyclo[5.1.0]octan-2-yl)-2-(((2R,7aS)-2-fluorotetrahydro-1H-pyrrolizin-7a(5H)-yl)methoxy-d2)-8-methylquinazolin-7-yl)naphthalen-2-amine]"
2,500 to 10000,"[2H]C([2H])(Oc1nc(N2CCOC[C@H]3[C@H](F)[C@H]32)c2cc(F)c(-c3ccc(F)c4sc(N)c(C#N)c34)c(C)c2n1)[C@@]12CCCN1C[C@H](F)C2 (atropisomer, axis not shown; (aS)) [Example 450, 2-amino-7-fluoro-4-((S)-6-fluoro-4-((1S,7S,8S)-8-fluoro-5-oxa-2-azabicyclo[5.1.0]octan-2-yl)-2-(((2R,7aS)-2-fluorotetrahydro-1H-pyrrolizin-7a(5H)-yl)methoxy-d2)-8-methylquinazolin-7-yl)benzo[b]thiophene-3-carbonitrile]"
